Legend:
[1] = molecular target: T1, Recombinant human c-Met protein (Homo sapiens, UniProt P08581); assay: c-Met receptor tyrosine kinase activity assay (NADH read-out); type: biochemical; conditions: c-Met 30 nM, ATP 30 μM, 100 min at 32° C.
T1 construct: purchased Invitrogen
Description: c-Met Receptor Tyrosine Kinase Activity Assay (NADH Read-Out):
Recombinant human c-Met protein (Invitrogen, Carlsbad, Calif., USA) is used. As substrate for the kinase reaction the peptide KKKSPGEYVNIEFG (JPT, Germany) is used. For the assay, 1 μL of a 51-fold concentrated solution of the test compound in DMSO is pipetted into a white 384-well microtiter plate (Greiner Bio-One, Frickenhausen, Germany). 25 μL of a solution of c-Met (final concentration 30 nM) and pyruvate kinase/lactate dehydrogenase (Roche Diagnostics, Mannheim, Germany; final concentration 8 mg/L) in assay buffer [3-(N-morpholino)propane-sulfonic acid (MOPS), 50 mM, pH 7; MgCl2, 10 mM; bovine serum albumin (BSA), 0.01%; Triton X 100, 0.01%; DTT, 2 mM] are added, and the mixture is incubated for 5 min at room temperature. Then, the kinase reaction is started by the addition of 25 μL of a solution of adenosine triphosphate (ATP, final concentration 30 μM), substrate (final concentration 100 μM), nicotinamide adenine dinucleotide (NADH, final concentration 50 μM) and dithiothreitol (DTT, final concentration 2 mM) in assay buffer, and the resulting mixture is incubated for a reaction time of 100 min at 32° C.
Subsequently, the amount of phosphorylated substrate is evaluated by measurement of the decrease of NADH fluorescence. Therefore, the fluorescence emissions at 465 nm after excitation at 340 nm is measured in a fluorescence reader, e.g. Tecan Ultra (Tecan, Männedorf, Switzerland). The data are normalised (enzyme reaction without inhibitor=0% inhibition; all other assay components but no enzyme=100% inhibition).

[2] = molecular target: T2, N-terminally His6-tagged recombinant kinase domain of the human c-Met (amino acids 960-1390) (Homo sapiens, UniProt P08581); assay: c-Met receptor tyrosine kinase homogeneous time-resolved fluorescence assay (alternative format); type: biochemical; conditions: HTRF; ATP 10 μM, 30 min at 22° C.
T2 construct: kinase domain of the human c-Met (amino acids 960-1390); His6 (N); made in house; host or cells: insect cells (SF21)
Text: c-Met Receptor Tyrosine Kinase Homogeneous Time-Resolved Fluorescence Assay (Alternative Format):
The N-terminally His6-tagged recombinant kinase domain of the human c-Met (amino acids 960-1390), expressed in insect cells (SF21) and purified by Ni-NTA affinity chromatography and consecutive size exclusion chromatography (Superdex 200), is used. Alternatively, commercially available c-Met (Millipore) can be used. As substrate for the kinase reaction, the biotinylated poly-Glu,Tyr (4:1) copolymer (#61GT0BLC, Cis Biointernational, Marcoule, France) is used.
For the assay, 50 nL of a 100-fold concentrated solution of the test compound in DMSO is pipetted into a black low-volume 384-well microtiter plate (Greiner Bio-One, Frickenhausen, Germany). 2 μL of a solution of c-Met in assay buffer [25 mM Hepes/NaOH, pH 7.5; 5 mM MgCl2; 5 mM MnCl2; 2 mM dithiothreitol; 0.1% (v/v) Tween 20 (Sigma); 0.1% (w/v) bovine serum albumin] are added, and the mixture is incubated for 15 min at 22° C. to allow pre-binding of the test compound to the enzyme before the start of the kinase reaction. Then, the kinase reaction is started by the addition of 3 μL of a solution of adenosine triphosphate (ATP, 16.7 μM; final concentration in the 5 μL assay volume is 10 μM) and substrate (2.27 μg/mL, final concentration in the 5 μL assay volume is 1.36 μg/mL˜30 nM) in assay buffer, and the resulting mixture is incubated for a reaction time of 30 min at 22° C. […]
The resulting mixture is incubated for 1 h at 22° C. to allow the binding of the biotinylated phosphorylated peptide to the streptavidine-XLent and the PT66-Eu-chelate. Subsequently, the amount of phosphorylated substrate is evaluated by measurement of the resonance energy transfer from the PT66-Eu-chelate to the streptavidine-XLent. Therefore, the fluorescence emissions at 620 nm and 665 nm after excitation at 350 nm are measured in an HTRF reader, e.g. Rubystar (BMG Lab-technologies, Offenburg, Germany) or Viewlux (Perkin-Elmer). […]

T2 sequence (P08581 960-1390): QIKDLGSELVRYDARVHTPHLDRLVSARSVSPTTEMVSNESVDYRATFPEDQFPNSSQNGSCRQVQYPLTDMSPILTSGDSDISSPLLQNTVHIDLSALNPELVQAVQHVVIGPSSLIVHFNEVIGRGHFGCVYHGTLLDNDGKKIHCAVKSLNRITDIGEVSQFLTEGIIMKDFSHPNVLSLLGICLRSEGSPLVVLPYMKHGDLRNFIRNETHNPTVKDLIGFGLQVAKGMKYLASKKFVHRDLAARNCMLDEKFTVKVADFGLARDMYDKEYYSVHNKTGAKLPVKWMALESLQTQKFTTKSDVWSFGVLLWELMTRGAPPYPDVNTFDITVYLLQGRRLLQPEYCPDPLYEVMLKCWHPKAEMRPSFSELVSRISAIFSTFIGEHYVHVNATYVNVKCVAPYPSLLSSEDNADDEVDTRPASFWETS
T1 sequence (P08581 25-1390): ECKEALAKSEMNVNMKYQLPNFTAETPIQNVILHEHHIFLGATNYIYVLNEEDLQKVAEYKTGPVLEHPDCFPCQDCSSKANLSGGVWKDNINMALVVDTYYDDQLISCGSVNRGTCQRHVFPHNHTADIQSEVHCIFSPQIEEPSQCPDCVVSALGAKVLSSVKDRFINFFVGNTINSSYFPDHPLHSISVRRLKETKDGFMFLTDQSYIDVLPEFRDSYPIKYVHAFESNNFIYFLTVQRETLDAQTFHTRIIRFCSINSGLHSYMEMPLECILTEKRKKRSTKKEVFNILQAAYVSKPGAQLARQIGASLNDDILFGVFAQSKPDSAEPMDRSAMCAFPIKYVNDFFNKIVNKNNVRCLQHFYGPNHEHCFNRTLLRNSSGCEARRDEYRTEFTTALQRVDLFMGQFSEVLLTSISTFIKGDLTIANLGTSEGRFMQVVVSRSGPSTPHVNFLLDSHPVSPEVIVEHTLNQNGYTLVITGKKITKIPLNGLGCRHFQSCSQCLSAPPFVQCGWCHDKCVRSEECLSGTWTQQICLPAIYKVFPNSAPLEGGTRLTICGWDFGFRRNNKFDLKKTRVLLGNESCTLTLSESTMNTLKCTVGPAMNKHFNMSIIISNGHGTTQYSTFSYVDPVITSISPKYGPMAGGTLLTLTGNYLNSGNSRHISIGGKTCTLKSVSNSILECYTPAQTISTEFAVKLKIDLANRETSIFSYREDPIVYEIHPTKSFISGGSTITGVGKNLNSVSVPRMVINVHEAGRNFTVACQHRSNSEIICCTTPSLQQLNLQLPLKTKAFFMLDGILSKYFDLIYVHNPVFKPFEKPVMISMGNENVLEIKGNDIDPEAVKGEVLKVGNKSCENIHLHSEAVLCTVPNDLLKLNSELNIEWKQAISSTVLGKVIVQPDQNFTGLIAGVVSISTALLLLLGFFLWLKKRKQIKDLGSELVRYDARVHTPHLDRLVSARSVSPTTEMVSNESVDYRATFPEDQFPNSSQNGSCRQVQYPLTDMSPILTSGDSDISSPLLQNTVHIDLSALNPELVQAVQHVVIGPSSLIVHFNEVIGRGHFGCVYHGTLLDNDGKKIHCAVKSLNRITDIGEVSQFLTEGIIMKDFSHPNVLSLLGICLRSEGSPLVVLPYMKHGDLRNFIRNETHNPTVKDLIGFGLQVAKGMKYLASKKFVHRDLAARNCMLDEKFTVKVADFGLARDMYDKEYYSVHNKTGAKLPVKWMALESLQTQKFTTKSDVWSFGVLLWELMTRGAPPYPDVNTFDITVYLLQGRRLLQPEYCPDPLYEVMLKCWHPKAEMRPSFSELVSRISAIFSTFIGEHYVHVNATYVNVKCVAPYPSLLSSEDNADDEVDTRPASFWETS

SMILES | IC50 [1] [nM] | IC50 [2] [nM]
CCc1n[nH]c2ccc(C3C(C#N)=C(C)N4CCOCC4=C3C#N)cc12 (single isomer, unassigned) [Example 5, 8-(3-Ethyl-1H-indazol-5-yl)-6-methyl-1,3,4,8-tetrahydropyrido[2,1-c][1,4]oxazine-7,9-dicarbonitrile] | 12 | –
CCc1n[nH]c2ccc(C3C(C#N)=C(C)N4CCOCC4=C3C#N)cc12 (racemic) [Example 4, 8-(3-Ethyl-1H-indazol-5-yl)-6-methyl-1,3,4,8-tetrahydropyrido[2,1-c][1,4]oxazine-7,9-dicarbonitrile] | – | 23
CC1=C(C#N)C(c2ccc3[nH]nc(C)c3c2)C(C#N)=C2COCCN12 (single isomer, unassigned) [Example 2, 6-Methyl-8-(3-methyl-1H-indazol-5-yl)-1,3,4,8-tetrahydropyrido[2,1-c][1,4]oxazine-7,9-dicarbonitrile] | 8 | 1

The remaining lines, values ahead:

IC50 [1] [nM] | IC50 [2] [nM] | SMILES
23 | 2 | CC1=C(C#N)C(c2ccc3[nH]nc(-c4ccc(F)nc4)c3c2)C(C#N)=C2COCCN12 (stereo not shown) [Example 7, 8-[3-(6-Fluoropyridin-3-yl)-1H-indazol-5-yl]-6-methyl-1,3,4,8-tetrahydropyrido[2,1-c][1,4]-oxazine-7,9-dicarbonitrile]
88 | – | CCc1n[nH]c2ccc(C3C(C#N)=C(C)N4CCOCC4=C3C#N)cc12 (single isomer, unassigned) [Example 6, 8-(3-Ethyl-1H-indazol-5-yl)-6-methyl-1,3,4,8-tetrahydropyrido[2,1-c][1,4]oxazine-7,9-dicarbonitrile]
